ChEMBL document CHEMBL3817755, “Design, synthesis and biological evaluation of indazolepyrimidine based derivatives as anticancer agents with anti-angiogenic and antiproliferative activities” (Medchemcomm, 2016)

Key:
[1] = molecular target: Vascular endothelial growth factor receptor 2 (Homo sapiens, UniProt P35968); test: Inhibition of VEGFR-2 (unknown origin) after 40 mins by Kinase-GloPlus luminescence assay
[2] = Growth inhibition of human MOLT4 cells after 48 hrs by SRB assay; type: functional; settings: MOLT-4, 48 h
[3] = Growth inhibition of human RPMI8226 cells after 48 hrs by SRB assay; type: functional; settings: RPMI-8226, 48 h
SR = test: Growth inhibition of human SR cells after 48 hrs by SRB assay; type: functional; settings: for CC50: read-out: LC50 (the source's name)
EKVX = test: Growth inhibition of human EKVX cells after 48 hrs by SRB assay; type: functional; settings: for CC50: read-out: LC50 (the source's name)
NCI-H226 = test: Growth inhibition of human NCI-H226 cells after 48 hrs by SRB assay; type: functional; settings: NCI-H226, 48 h; for CC50: read-out: LC50 (the source's name)
NCI-H522 = test: Growth inhibition of human NCI-H522 cells after 48 hrs by SRB assay; type: functional; settings: NCI-H522, 48 h
[4] = Growth inhibition of human COLO205 cells after 48 hrs by SRB assay; type: functional; settings: COLO 205, 48 h
[5] = Growth inhibition of human HCT15 cells after 48 hrs by SRB assay; type: functional; settings: HCT-15, 48 h
HT-29 = test: Growth inhibition of human HT-29 cells after 48 hrs by SRB assay; type: functional; settings: HT-29, 48 h; for CC50: read-out: LC50 (the source's name)
[6] = Growth inhibition of human SF295 cells after 48 hrs by SRB assay; type: functional; settings: SF-295, 48 h
U-251 = test: Growth inhibition of human U251 cells after 48 hrs by SRB assay; type: functional; settings: U-251, 48 h; for CC50: read-out: LC50 (the source's name)
[7] = Growth inhibition of human LOXIMVI cells after 48 hrs by SRB assay; type: functional; settings: LOX IMVI
M14 = test: Growth inhibition of human M14 cells after 48 hrs by SRB assay; type: functional; settings: M14, 48 h; for CC50: read-out: LC50 (the source's name)
MDA-MB-435 = test: Growth inhibition of human MDA-MB-435 cells after 48 hrs by SRB assay; type: functional; settings: MDA-MB-435, 48 h
SK-MEL-2 = test: Growth inhibition of human SK-MEL-2 cells after 48 hrs by SRB assay; type: functional; settings: SK-MEL-2, 48 h
SK-MEL-5 = test: Growth inhibition of human SK-MEL-5 cells after 48 hrs by SRB assay; type: functional; settings: SK-MEL-5, 48 h; for CC50: read-out: LC50 (the source's name)
[8] = Growth inhibition of human UACC257 cells after 48 hrs by SRB assay; type: functional; settings: UACC-257, 48 h; for CC50: read-out: LC50 (the source's name)
[9] = Growth inhibition of human OVCAR8 cells after 48 hrs by SRB assay; type: functional; settings: OVCAR-8, 48 h; for CC50: read-out: LC50 (the source's name)
786-0 = test: Growth inhibition of human 786-0 cells after 48 hrs by SRB assay; type: functional; settings: 786-0, 48 h; for CC50: read-out: LC50 (the source's name)
A498 = test: Growth inhibition of human A498 cells after 48 hrs by SRB assay; type: functional; settings: A498, 48 h; for CC50: read-out: LC50 (the source's name)
[10] = Growth inhibition of human RXF393 cells after 48 hrs by SRB assay; type: functional; settings: RXF 393, 48 h
[11] = Growth inhibition of human PC3 cells after 48 hrs by SRB assay; type: functional; settings: PC-3, 48 h
[12] = Growth inhibition of human DU145 cells after 48 hrs by SRB assay; type: functional; settings: DU-145, 48 h
MCF7 = test: Growth inhibition of human MCF7 cells after 48 hrs by SRB assay; type: functional; settings: MCF7, 48 h; for CC50: read-out: LC50 (the source's name)
[13] = Growth inhibition of human BT549 cells after 48 hrs by SRB assay; type: functional; settings: BT-549, 48 h; for CC50: read-out: LC50 (the source's name)
T47D = test: Growth inhibition of human T47D cells after 48 hrs by SRB assay; type: functional
MDA-MB-468 = test: Growth inhibition of human MDA-MB-468 cells after 48 hrs by SRB assay; type: functional; settings: MDA-MB-468, 48 h; for CC50: read-out: LC50 (the source's name)
[14] = molecular target: Hepatocyte growth factor receptor (Homo sapiens) (UniProt P08581); test: Inhibition of c-Met (unknown origin) at 10 uM
[15] = molecular target: Aurora kinase A (Homo sapiens) (UniProt O14965); test: Inhibition of Aurora A (unknown origin) at 10 uM
[16] = molecular target: Cyclin-dependent kinase 2 (Homo sapiens) (UniProt P24941); test: Inhibition of CDK-2 (unknown origin) at 10 uM
[17] = molecular target: Mast/stem cell growth factor receptor Kit (Homo sapiens) (UniProt P10721); test: Inhibition of c-Kit (unknown origin) at 10 uM
[18] = Cytotoxicity against human PC3 cells after 72 hrs by SRB assay; settings: PC-3, 72 h
[19] = Growth inhibition of human SF539 cells after 48 hrs by SRB assay; type: functional; settings: SF-539, 48 h
[20] = Growth inhibition of human SNB19 cells after 48 hrs by SRB assay; type: functional; settings: SNB-19, 48 h
[21] = Growth inhibition of human IGROV1 cells after 48 hrs by SRB assay; type: functional; settings: IGROV-1, 48 h
[22] = read-out: LC50 (the source's name)

Mast/stem cell growth factor receptor Kit (Homo sapiens), sequence (P10721 whole entry): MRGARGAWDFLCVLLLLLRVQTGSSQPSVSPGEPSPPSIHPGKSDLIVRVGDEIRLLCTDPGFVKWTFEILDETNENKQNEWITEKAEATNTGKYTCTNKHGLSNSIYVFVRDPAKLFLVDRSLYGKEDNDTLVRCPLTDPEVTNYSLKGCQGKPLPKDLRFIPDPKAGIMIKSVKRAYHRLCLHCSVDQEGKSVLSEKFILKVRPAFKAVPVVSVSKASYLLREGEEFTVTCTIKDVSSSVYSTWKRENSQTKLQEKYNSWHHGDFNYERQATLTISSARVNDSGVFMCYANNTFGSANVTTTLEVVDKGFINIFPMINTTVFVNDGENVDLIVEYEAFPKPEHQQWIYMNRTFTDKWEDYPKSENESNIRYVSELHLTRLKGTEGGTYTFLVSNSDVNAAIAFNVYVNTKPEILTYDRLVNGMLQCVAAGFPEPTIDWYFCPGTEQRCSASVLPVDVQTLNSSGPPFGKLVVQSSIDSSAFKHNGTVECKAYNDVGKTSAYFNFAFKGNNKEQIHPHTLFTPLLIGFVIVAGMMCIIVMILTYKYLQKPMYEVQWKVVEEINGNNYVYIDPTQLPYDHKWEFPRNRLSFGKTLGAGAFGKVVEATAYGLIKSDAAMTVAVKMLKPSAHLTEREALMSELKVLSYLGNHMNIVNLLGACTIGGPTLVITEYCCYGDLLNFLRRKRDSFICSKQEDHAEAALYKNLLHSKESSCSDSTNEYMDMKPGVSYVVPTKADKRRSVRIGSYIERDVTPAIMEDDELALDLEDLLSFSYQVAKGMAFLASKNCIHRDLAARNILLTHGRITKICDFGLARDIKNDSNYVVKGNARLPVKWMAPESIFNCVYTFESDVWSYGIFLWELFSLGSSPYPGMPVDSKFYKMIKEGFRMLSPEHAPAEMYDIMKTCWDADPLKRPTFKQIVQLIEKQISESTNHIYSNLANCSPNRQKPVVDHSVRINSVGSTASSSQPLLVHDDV
Vascular endothelial growth factor receptor 2, sequence (P35968 whole entry): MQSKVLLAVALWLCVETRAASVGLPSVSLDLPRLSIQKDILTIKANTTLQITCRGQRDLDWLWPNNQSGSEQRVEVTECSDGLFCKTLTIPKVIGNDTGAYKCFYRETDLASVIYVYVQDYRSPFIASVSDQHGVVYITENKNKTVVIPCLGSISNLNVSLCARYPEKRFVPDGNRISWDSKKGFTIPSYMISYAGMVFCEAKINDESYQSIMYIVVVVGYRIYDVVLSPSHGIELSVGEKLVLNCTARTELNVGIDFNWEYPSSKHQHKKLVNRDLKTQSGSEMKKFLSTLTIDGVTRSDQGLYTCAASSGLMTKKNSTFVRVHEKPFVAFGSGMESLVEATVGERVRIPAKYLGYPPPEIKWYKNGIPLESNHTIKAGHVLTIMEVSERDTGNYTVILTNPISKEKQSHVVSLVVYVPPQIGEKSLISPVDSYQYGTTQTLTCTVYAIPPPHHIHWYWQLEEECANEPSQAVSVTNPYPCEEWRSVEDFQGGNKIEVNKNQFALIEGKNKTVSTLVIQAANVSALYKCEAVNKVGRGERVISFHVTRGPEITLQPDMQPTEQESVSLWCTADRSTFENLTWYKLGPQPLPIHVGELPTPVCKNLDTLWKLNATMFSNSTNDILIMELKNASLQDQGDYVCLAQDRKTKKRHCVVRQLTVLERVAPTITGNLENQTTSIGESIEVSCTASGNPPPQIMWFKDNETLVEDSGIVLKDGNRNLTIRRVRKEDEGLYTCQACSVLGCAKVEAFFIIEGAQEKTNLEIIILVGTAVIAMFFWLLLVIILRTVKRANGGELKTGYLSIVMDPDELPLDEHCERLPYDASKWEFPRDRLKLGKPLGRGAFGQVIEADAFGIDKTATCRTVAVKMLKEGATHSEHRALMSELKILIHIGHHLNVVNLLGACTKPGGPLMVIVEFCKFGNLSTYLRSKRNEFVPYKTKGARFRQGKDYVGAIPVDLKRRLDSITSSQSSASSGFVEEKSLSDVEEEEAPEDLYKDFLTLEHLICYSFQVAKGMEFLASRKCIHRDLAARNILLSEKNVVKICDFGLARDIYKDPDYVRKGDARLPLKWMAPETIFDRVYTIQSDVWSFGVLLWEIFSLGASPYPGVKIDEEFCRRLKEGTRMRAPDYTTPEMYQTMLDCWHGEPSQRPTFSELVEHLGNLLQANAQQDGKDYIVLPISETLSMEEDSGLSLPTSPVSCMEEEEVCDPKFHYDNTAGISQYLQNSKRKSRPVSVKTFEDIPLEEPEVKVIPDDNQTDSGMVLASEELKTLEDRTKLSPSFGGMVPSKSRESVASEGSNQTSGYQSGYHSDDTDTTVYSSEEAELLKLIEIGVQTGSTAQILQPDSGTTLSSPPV
Aurora kinase A (Homo sapiens), sequence (O14965 whole entry): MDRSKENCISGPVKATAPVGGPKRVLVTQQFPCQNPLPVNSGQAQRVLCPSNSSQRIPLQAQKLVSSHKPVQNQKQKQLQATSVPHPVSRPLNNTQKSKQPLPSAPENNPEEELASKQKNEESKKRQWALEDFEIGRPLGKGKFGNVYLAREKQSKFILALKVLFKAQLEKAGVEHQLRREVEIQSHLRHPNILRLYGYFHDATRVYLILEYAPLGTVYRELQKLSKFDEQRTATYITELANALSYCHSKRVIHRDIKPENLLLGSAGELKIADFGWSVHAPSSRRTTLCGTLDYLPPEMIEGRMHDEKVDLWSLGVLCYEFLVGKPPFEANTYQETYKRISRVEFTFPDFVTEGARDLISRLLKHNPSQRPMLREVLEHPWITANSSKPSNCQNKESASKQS
Hepatocyte growth factor receptor (Homo sapiens), sequence (P08581 whole entry): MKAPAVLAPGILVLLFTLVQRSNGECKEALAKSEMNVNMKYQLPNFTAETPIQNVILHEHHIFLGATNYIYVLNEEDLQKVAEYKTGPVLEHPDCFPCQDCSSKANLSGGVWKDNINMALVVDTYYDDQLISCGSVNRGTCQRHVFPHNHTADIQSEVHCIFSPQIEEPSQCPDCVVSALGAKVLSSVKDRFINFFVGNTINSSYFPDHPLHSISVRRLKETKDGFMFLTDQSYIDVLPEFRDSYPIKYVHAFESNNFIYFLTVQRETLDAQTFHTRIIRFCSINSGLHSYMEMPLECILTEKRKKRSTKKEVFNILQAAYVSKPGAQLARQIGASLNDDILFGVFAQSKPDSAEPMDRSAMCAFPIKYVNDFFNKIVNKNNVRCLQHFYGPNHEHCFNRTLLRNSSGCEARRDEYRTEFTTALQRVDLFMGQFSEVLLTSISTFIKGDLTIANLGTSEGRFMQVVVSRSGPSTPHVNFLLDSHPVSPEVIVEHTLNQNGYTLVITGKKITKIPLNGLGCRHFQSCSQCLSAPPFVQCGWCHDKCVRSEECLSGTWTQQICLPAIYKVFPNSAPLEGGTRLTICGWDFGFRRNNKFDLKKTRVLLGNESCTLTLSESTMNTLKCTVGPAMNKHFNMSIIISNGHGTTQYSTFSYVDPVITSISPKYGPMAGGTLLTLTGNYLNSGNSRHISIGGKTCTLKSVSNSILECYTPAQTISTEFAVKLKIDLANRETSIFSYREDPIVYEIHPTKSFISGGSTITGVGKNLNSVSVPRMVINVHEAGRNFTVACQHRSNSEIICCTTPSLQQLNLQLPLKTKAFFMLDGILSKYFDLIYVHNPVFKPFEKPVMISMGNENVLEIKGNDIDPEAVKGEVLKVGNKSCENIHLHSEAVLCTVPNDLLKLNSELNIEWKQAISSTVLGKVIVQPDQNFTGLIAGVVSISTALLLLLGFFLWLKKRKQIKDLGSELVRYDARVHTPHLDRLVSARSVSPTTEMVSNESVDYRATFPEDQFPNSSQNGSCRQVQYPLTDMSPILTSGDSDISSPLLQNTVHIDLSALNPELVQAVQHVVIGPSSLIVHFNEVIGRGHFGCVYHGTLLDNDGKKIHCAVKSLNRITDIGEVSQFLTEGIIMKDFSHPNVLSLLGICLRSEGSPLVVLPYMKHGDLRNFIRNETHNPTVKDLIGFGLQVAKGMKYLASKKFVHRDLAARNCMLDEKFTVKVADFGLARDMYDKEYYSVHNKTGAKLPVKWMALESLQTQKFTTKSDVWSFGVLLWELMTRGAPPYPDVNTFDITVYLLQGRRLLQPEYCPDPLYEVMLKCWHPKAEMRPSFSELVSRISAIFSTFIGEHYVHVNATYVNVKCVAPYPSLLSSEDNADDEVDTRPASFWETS

COc1cccc(Nc2nccc(Nc3ccc4[nH]ncc4c3)n2)c1
IC50 [1]: 0.081 µM | GI50 [2]: 0.52 µM | LC50 [2]: 28.4 µM | TGI [2]: 2.83 µM | GI50 [3]: 1.36 µM | LC50 [3]: 50.1 µM | TGI [3]: 4.19 µM | GI50 (SR): 1.34 µM | TGI (SR): 4.93 µM | CC50 (SR): 20.6 µM | GI50 (EKVX): 1.64 µM | TGI (EKVX): 4.09 µM | CC50 (EKVX): 10.5 µM | GI50 (NCI-H226): 1.82 µM | TGI (NCI-H226): 4.46 µM | CC50 (NCI-H226): 14.8 µM | GI50 (NCI-H522): 1.48 µM | LC50 (NCI-H522): 5.54 µM | TGI (NCI-H522): 2.86 µM | GI50 [4]: 1.57 µM | LC50 [4]: 6.76 µM | TGI [4]: 3.26 µM | GI50 [5]: 1.21 µM | LC50 [5]: 7.01 µM | TGI [5]: 2.91 µM | GI50 (HT-29): 1.52 µM | TGI (HT-29): 3.45 µM | CC50 (HT-29): 7.83 µM | GI50 [6]: 1.66 µM | LC50 (concentration killing 50% of cells) [6]: 6.04 µM | TGI [6]: 3.17 µM | GI50 (U-251): 1.58 µM | TGI (U-251): 3.18 µM | CC50 (U-251): 6.39 µM | GI50 [7]: 1.44 µM | LC50 [7]: 7.07 µM | TGI [7]: 3.19 µM | GI50 (M14): 1.35 µM | TGI (M14): 2.81 µM | CC50 (M14): 5.83 µM | GI50 (MDA-MB-435): 1.49 µM | LC50 (MDA-MB-435): 6.78 µM | TGI (MDA-MB-435): 3.18 µM | GI50 (SK-MEL-2): 1.62 µM | LC50 (SK-MEL-2): 6.59 µM | TGI (SK-MEL-2): 3.27 µM | GI50 (SK-MEL-5): 1.22 µM | TGI (SK-MEL-5): 2.47 µM | CC50 (SK-MEL-5): 5.01 µM | GI50 [8]: 2.04 µM | TGI [8]: 3.73 µM | CC50 [8]: 6.79 µM | GI50 [9]: 1.67 µM | TGI [9]: 4.39 µM | CC50 [9]: 13.4 µM | GI50 (786-0): 1.46 µM | TGI (786-0): 2.91 µM | CC50 (786-0): 5.82 µM | GI50 (A498): 1.65 µM | TGI (A498): 5.3 µM | CC50 (A498): 30.5 µM | GI50 [10]: 1.06 µM | LC50 (50% lethal concentration) [10]: 5.1 µM | TGI [10]: 2.33 µM | GI50 [11]: 1.34 µM | LC50 [11]: 7.23 µM | TGI [11]: 3.12 µM | GI50 [12]: 1.3 µM | LC50 [12]: 6.24 µM | TGI [12]: 2.85 µM | GI50 (MCF7): 1.26 µM | TGI (MCF7): 3.11 µM | CC50 (MCF7): 7.53 µM | GI50 [13]: 1.67 µM | TGI [13]: 3.71 µM | CC50 [13]: 8.23 µM | GI50 (T47D): 1.05 µM | LC50 (concentration killing 50% of cells) (T47D): 9.23 µM | TGI (T47D): 3.12 µM | GI50 (MDA-MB-468): 1.25 µM | TGI (MDA-MB-468): 2.77 µM | CC50 (MDA-MB-468): 6.13 µM | inhibition [14]: 54% | inhibition [15]: 76% | inhibition [16]: 76% | inhibition [17]: 80%

NS(=O)(=O)c1ccc(Nc2nccc(Nc3ccc4[nH]ncc4c3)n2)cc1
IC50 [18]: 33.8 µM

COc1ccc(Nc2nccc(Nc3ccc4[nH]ncc4c3)n2)cc1
IC50 [1]: 0.117 µM | GI50 [2]: 1.55 µM | LC50 [2]: > 100 µM | TGI [2]: 4.67 µM | GI50 [3]: 1.99 µM | LC50 [3]: > 100 µM | TGI [3]: 4.67 µM | GI50 (SR): 1.75 µM | TGI (SR): 4.67 µM | CC50 (SR): > 100 µM | GI50 (EKVX): 5 µM | TGI (EKVX): 17.9 µM | CC50 (EKVX): 42.3 µM | GI50 (NCI-H226): 2.3 µM | TGI (NCI-H226): 5.77 µM | CC50 (NCI-H226): > 100 µM | GI50 (NCI-H522): 1.86 µM | LC50 (NCI-H522): 15.6 µM | TGI (NCI-H522): 4.77 µM | GI50 [4]: 2.59 µM | LC50 [4]: 25.4 µM | TGI [4]: 7.21 µM | GI50 [5]: 1.9 µM | LC50 [5]: 9.61 µM | TGI [5]: 4.28 µM | GI50 (HT-29): 2.36 µM | TGI (HT-29): 8.33 µM | CC50 (HT-29): 39.7 µM | GI50 [6]: 3.78 µM | LC50 (concentration killing 50% of cells) [6]: 37.1 µM | TGI [6]: 13.8 µM | GI50 [19]: 4.38 µM | TGI [19]: 16.8 µM | CC50 [19, 22]: 51.3 µM | GI50 [20]: 4.3 µM | TGI [20]: 87 µM | CC50 [20, 22]: > 100 µM | GI50 (U-251): 3.61 µM | TGI (U-251): 13.6 µM | CC50 (U-251): 36.9 µM | GI50 [7]: 1.92 µM | LC50 [7]: 7.8 µM | TGI [7]: 3.87 µM | GI50 (M14): 2.39 µM | TGI (M14): 6.15 µM | CC50 (M14): 21.2 µM | GI50 (MDA-MB-435): 2.1 µM | LC50 (MDA-MB-435): 20.1 µM | TGI (MDA-MB-435): 5.7 µM | GI50 (SK-MEL-2): 2.4 µM | LC50 (SK-MEL-2): 29.8 µM | TGI (SK-MEL-2): 6.39 µM | GI50 (SK-MEL-5): 2.01 µM | TGI (SK-MEL-5): 4.75 µM | CC50 (SK-MEL-5): 13.1 µM | GI50 [8]: 5.41 µM | TGI [8]: 16.9 µM | CC50 [8]: 41.1 µM | GI50 [21]: 3.36 µM | TGI [21]: 25.1 µM | CC50 [21, 22]: > 100 µM | GI50 [9]: 2.24 µM | TGI [9]: 5.39 µM | CC50 [9]: > 100 µM | GI50 (786-0): 1.74 µM | TGI (786-0): 4.75 µM | CC50 (786-0): 16.1 µM | GI50 (A498): 4.62 µM | TGI (A498): 17.2 µM | CC50 (A498): 41.4 µM | GI50 [10]: 1.98 µM | LC50 (50% lethal concentration) [10]: 24.3 µM | TGI [10]: 6.45 µM | GI50 [11]: 2.21 µM | LC50 [11]: 50.4 µM | TGI [11]: 7.2 µM | GI50 [12]: 3.31 µM | LC50 [12]: 41.7 µM | TGI [12]: 12.9 µM | GI50 (MCF7): 2.05 µM | TGI (MCF7): 5.36 µM | CC50 (MCF7): > 100 µM | GI50 [13]: 3.22 µM | TGI [13]: 12.1 µM | CC50 [13]: 34.8 µM | GI50 (T47D): 1.77 µM | LC50 (concentration killing 50% of cells) (T47D): 97.8 µM | TGI (T47D): 5.24 µM | GI50 (MDA-MB-468): 1.7 µM | TGI (MDA-MB-468): 4.55 µM | CC50 (MDA-MB-468): 20.6 µM | inhibition [14]: 42% | inhibition [15]: 91% | inhibition [16]: 71% | inhibition [17]: 85%
